The target of one experiment is T1, Mouse TLR7 (Mus musculus, UniProt P58681).
T1 construct: endogenous in cells; host or cells: female BALB/c mice, in vivo
T1 sequence (P58681 27-1050): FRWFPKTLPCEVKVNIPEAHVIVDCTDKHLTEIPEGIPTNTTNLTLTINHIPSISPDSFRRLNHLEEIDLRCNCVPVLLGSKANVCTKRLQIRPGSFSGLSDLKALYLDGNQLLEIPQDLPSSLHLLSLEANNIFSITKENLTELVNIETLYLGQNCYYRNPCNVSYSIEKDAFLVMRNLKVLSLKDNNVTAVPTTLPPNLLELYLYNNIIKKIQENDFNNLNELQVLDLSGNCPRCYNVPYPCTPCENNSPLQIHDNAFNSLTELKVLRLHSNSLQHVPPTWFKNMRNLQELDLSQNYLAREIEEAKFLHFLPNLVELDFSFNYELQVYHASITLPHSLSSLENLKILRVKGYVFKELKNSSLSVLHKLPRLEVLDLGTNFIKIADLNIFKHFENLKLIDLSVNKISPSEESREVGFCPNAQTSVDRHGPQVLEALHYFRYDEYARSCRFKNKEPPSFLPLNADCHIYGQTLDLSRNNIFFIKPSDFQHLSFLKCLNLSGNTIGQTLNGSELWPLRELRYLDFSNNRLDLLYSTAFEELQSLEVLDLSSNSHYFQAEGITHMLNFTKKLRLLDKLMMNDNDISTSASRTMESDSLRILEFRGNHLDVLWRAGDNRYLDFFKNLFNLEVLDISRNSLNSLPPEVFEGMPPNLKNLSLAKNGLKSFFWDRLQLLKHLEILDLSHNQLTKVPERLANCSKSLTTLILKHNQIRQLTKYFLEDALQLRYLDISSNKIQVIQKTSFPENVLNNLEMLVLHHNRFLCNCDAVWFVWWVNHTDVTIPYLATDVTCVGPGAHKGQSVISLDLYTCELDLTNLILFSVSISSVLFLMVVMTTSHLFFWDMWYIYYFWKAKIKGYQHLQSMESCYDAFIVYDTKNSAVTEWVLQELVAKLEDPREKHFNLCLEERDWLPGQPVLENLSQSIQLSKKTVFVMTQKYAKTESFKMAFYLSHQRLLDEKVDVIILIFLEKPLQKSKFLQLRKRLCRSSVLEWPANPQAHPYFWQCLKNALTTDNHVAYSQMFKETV
The experiment can be described thus: HEK-293 NF-kappaB luciferase reporter assay, CL097 stimulus. In kind it is cell-based. The conditions noted are these: ligand CL097, analyte NFkB-luciferase. The text has this:
(§1) In vitro pharmacology: HEK-293 cells (ATCC) were engineered to stably express a NF-kappaB transcription factor inducible E-selectin (ELAM-1) luciferase reporter derived from the plasmid pGL3 (Promega) containing base pairs −2241 bp to −254 bp from the promoter of the human E-selectin gene (Accession No. NM_000450). These cells were then subsequently engineered to stably and individually express human TLR4, TLR7 or TLR9 full-length ORF cDNAs. Human TLR4 cDNA (Accession No. NM_138554) was cloned into pcDNA 3.0 expression vector (Invitrogen). TLR4 transfected cells were also engineered to express human MD-2 co-receptor [MD-2 cDNA (Accession No. NM_015364) was cloned into the pEF-BOS vector] and were supplemented with 10 nM soluble CD14 (R&D Systems) in the media to optimize LPS responsiveness. Human TLR9 cDNA (Accession No. NM_017442) was cloned into the pBluescript II KS vector (Agilent). Human TLR7 cDNA (Accession No. NM_016562) was obtained from OriGene. HEK-293 cells stably expressing human TLR8 (Accession No. NM_138636) or mouse TLR7 (Accession No. NM_133211) were purchased from InvivoGen and were then stably transfected with pNiFty2(NF-kappaB)-luciferase reporter plasmid (InvivoGen). Each cell type was plated in Dulbecco's modified Eagle's medium (DMEM) containing 10% fetal bovine serum (FBS) at a density of 2.22×10^5 cells/ml into a 384-well plate and incubated for 2 days at 37° C., 5% CO2. Varying concentrations of antagonist compounds were then added. Cells were then incubated for another 30 minutes before adding the appropriate TLR agonist as follows (final concentrations indicated): lipopolysaccharide (LPS; Sigma) at 10 ng/ml for TLR4, CL097 (InvivoGen) at 3 ug/ml for human TLR7 and TLR8 and mouse TLR7, and CpG-2006-2A [sequence: […] (SEQ ID NO: 1) with phosphorothioate backbone, synthesized by Sigma-Aldrich] at 0.6 uM for TLR9.
On the technique in general: Reporter assays use an easily measured gene product as a stand-in for the process of interest.

The target of the next experiment is T2, Human TLR7 (Homo sapiens, UniProt Q9NYK1).
T2 construct: engineered to stably and individually express human TLR4, TLR7 or TLR9 full-length ORF cDNAs; host or cells: HEK-293 (ATCC) with ELAM-1 NF-kappaB luciferase reporter
T2 sequence (Q9NYK1 27-1049): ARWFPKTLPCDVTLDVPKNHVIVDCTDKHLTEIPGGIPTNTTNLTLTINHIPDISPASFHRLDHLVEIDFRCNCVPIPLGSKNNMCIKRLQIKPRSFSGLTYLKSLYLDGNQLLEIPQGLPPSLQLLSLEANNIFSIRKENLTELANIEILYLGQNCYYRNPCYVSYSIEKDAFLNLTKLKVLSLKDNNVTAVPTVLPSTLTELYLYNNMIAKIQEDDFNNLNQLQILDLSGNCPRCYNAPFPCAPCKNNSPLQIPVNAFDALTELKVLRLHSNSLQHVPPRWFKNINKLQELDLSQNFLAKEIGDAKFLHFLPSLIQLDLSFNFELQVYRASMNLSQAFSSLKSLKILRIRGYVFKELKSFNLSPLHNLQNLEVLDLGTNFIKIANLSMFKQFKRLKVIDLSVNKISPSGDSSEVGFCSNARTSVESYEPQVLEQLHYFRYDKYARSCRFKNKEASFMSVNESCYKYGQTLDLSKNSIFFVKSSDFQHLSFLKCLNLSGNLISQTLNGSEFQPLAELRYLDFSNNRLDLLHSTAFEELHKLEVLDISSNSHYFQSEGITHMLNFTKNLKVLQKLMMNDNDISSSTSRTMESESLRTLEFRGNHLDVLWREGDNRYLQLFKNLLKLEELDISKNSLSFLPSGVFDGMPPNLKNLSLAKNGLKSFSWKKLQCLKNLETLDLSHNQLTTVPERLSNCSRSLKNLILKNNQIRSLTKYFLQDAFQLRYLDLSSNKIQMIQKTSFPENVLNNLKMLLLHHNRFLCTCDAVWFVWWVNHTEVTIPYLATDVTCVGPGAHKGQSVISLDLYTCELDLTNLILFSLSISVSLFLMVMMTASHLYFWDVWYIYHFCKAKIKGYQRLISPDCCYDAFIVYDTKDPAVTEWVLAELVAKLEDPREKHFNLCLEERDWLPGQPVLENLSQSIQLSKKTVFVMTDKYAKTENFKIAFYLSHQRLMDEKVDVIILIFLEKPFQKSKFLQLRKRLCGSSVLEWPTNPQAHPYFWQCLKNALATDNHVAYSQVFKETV
The description is as above. In kind it is cell-based. The conditions noted are these: ligand CL097, analyte NFkB-luciferase.
Text: as §1

Consider `COc1ccc([C@@H]2C[C@H](C(F)(F)F)n3nc(-c4ccc(C(=O)N5CCNCC5)cc4)cc3N2)cc1OC` [ER-892887, (4-((5S,7R)-5-(3,4-dimethoxyphenyl)-7-(trifluoromethyl)-4,5,6,7-tetrahydropyrazolo[1,5-a]pyrimidin-2-yl)phenyl)(piperazin-1-yl)methanone], for which the half-maximal inhibitory concentration (IC50) at Mouse TLR7 stood at 0.276 µM; against Human TLR7, 0.01 µM.

For orientation: IC50 means the midpoint of a concentration-inhibition curve. Low readings indicate higher potency, high ones lower potency.

Source of the values: patent publication US9126999B2, “Tetrahydropyrazolopyrimidine compounds” (EISAI R&D MANAGEMENT CO., LTD., priority 2012, dated 2015).
